Assays:
[1] = tested on: P-gp overexpressing prostate cancer cell line, DU145TXR; test: MTT cell viability assay, resensitization to paclitaxel; assay type: cell-based, human; conditions: Homo sapiens; paclitaxel alone, DU145TXR, 48 hours; read-out: IC50 PTX, PTX alone
Excerpt: The Group 1 ChemGen/docking routine produced variants of P-gp inhibitor 29 resensitize a multidrug resistant, P-gp overexpressing prostate cancer cell line to paclitaxel. The mitochondrial reduction potential of cells is often used as an indicator for cell viability using MTT assays^4. Using these assays it was observed that the five Group 1 derivatives of 29 predicted through the ChemGen/docking routine and synthesized here, 216, 227, 231, 541 and 551, re-sensitized the P-gp overexpressing prostate cancer cell line, DU145TXR^33, to the chemotherapeutic, paclitaxel (FIG. 12, showing results of assays at concentrations of 3 μM, 5 μM, 7 μM, and 10 μM).
Cytotoxicity of the chemotherapeutic, paclitaxel (PTX) to P-gp overexpressing prostate cancer cells, DU145TXR, was determined in the absence and presence of the ChemGen designed 29-variants, 216, 227, 231, 541 and 551. For each experimental compound IC50 values of PTX alone or in the presence of inhibitors, fold improvement of PTX sensitivity in the presence of inhibitor, and fold improvement of PTX sensitivity by variants compared to parental compound 29 are given.
Effects of Group 2 variants on the paclitaxel sensitivity of P-glycoprotein overexpressing prostate cancer cells, DU145TXR. MTT assays were again used to assess the efficacy of the new structural 29-variants on sensitizing the chemotherapy-resistant prostate cancer cell line, DU145TXR, to paclitaxel, at concentrations of 3 μM, 5 μM, 7 μM, and 10 μM as shown in FIG. 15 and Table 4.
MTT cell viability assay. Cells were trypsinized from monolayers and seeded with 3000 cells in 150 μL of complete medium in a 96 well plate. After 24 hours, cells were treated for 48 hours with paclitaxel (Acros Organics, NJ) and/or P-gp inhibitory compounds dissolved in DMSO, or DMSO controls. All additions were diluted into complete medium. After 48 hours of treatment, MTT assays were performed as described^41 using 5 mg/mL of MTT (Acros Organics, NJ) solution prepared in PBS (137 mM NaCl, 2.7 mM KCl, 10 mM Na2HPO4, 1.8 mM KH2PO4, pH 7.4). After 4 hours of incubation with MTT, the media was removed and the formazan crystals were dissolved in 100 μL of DMSO. The absorbance at 570 nm was then measured using a BioTek Cytation 5 imaging multi-mode reader (Bio-Tek, Winooski, Vt.). Percent viability was calculated using DMSO treated cells as representative for 100% viability, according to Equation 1. Background absorbance was determined using MTT and complete medium without cells and subtracted from all the test values. Equation 1:
The results were plotted as the mean with standard deviation (SD) of eight replicates per concentration from at least two independent experiments with n=8. The graphical representations and IC50 values were determined using four parameter variable slope non-linear regression, using the following equation: Y=bottom+(top-bottom)/(1+10^((log IC50−X)*Hill Slope) (GraphPad Prism™, La Jolla Calif., USA, Version 6.05). The reported “fold sensitization” was calculated as follows, per Equation 2: […]

[2] = molecular target: P-gp (P-gp over-expressing cell line, DU145TXR) (Homo sapiens, UniProt P08183); test: Cellular accumulation of experimental compounds by LC-MS/MS with and without tariquidar
P-gp (P-gp over-expressing cell line, DU145TXR), sequence (P08183 whole entry): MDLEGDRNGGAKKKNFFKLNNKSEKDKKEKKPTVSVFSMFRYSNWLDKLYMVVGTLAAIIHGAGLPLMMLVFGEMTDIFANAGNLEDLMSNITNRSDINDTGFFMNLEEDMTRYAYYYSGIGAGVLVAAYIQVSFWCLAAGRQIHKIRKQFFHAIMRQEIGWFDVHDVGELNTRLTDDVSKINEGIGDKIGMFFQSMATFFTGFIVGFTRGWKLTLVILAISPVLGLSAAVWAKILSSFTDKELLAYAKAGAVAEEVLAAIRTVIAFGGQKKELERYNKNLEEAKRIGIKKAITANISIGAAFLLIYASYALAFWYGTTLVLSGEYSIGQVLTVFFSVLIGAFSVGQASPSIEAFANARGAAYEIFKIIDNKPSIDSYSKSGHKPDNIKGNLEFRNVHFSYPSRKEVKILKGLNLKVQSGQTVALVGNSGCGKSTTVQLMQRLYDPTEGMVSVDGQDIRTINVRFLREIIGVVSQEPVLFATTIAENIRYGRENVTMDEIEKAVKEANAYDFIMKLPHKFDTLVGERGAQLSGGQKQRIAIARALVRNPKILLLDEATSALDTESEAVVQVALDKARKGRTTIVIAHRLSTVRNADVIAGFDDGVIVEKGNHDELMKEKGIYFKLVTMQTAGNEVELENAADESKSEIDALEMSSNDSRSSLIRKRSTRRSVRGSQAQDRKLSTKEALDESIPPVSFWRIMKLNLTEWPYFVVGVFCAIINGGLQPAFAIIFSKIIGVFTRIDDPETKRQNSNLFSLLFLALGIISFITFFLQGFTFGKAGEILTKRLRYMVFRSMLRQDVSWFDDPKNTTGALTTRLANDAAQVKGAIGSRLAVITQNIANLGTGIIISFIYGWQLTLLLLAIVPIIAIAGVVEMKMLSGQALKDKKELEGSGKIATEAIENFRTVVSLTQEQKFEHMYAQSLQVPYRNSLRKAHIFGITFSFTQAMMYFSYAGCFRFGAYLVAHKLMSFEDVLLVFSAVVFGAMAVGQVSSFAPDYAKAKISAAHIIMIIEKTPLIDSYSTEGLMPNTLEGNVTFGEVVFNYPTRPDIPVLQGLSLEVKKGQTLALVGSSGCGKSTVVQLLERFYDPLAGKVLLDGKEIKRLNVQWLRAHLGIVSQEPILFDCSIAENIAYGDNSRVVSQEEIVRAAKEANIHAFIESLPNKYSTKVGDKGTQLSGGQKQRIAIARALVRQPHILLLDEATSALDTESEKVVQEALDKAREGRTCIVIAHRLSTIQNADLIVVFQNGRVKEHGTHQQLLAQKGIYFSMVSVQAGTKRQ
Protocol: Stimulation of basal ATPase by 29-variants was used as an indicator that a compound may be a P-gp transport substrate. Effects on stimulated P-gp ATPase activity indicated whether a compound directly interfered with ATP usage by the protein (***, p<0.001; **, p<0.01; *, p<0.1; NS, not significant). Quantitative cellular accumulation of 29-variants was performed using LC-MS/MS and is presented as a ratio of the cellular amounts of 29-variants in the presence of P-gp inhibitor, tariquidar, divided by amounts accumulated in its absence. […] Binding of an ATP analog, SL-ATP, to P-gp was used to determine whether ATP binding to P-gp was affected by the 29-variants. Values +/−standard deviations are shown for at least three different P-gp preparations and three independent SL-ATP titration experiments. The values for SL-ATP binding in the presence of 29 were taken directly from Brewer et al. (2014).
Intracellular accumulation of compound 29 variants. Cell accumulation assays for each of the 29 variants were performed as in reference^28 to more directly assess whether the compounds were indeed transport substrates for P-gp.
Cellular Accumulation Assays for Experimental P-gp Inhibitors. Cells used (DU145TXR), cell culturing, cell exposure to compounds, cellular handling and extractions were performed as described in^28. LC-MS/MS methods were performed as described in^71 and as modified in^28.

Compound | IC50 [1] | Transport substrate for P-gp ([2]; DU145TXR accumulation with/without tariquidar (and basal ATPase)) | Intracellular accumulation in absence vs presence of tariquidar (in words) ([2]; DU145TXR, LC-MS/MS)
CC(=O)O[C@H]1C(=O)[C@@]2(C)[C@H]([C@H](OC(=O)c3ccccc3)[C@]3(O)C[C@H](OC(=O)[C@H](O)[C@@H](NC(=O)c4ccccc4)c4ccccc4)C(C)=C1C3(C)C)[C@]1(OC(C)=O)CO[C@@H]1C[C@@H]2O [PTX, paclitaxel, reference compound] | 2120 nM |  | 
COc1cccc2c1C(=O)c1c(O)c3c(c(O)c1C2=O)C[C@@](O)(C(C)=O)C[C@@H]3O[C@H]1C[C@H](N)[C@H](O)[C@H](C)O1 [Daunorubicin, reference compound] |  | good transport substrate for P-gp | very strong cellular accumulation

From patent publication US20210134398A1, “Combinatorial Chemistry Computational System and Enhanced Selection Method” (Southern Methodist University, priority 2019, published 2021)
